In ChEMBL document CHEMBL2346546, “Hit identification of novel heparanase inhibitors by structure- and ligand-based approaches” (Bioorg Med Chem, 2013):
Calls of active or inactive are those of the source. No cut-off for these calls is given here.

What was measured:
Heparanase [1] = molecular target: T1, Heparanase (Homo sapiens, UniProt Q9Y251); assay: Binding affinity to recombinant heparanase catalytic stie (unknown origin) expressed in Escherichia coli BL21 (DE3) by surface plasmon resonance assay
T1 sequence (Q9Y251 whole entry): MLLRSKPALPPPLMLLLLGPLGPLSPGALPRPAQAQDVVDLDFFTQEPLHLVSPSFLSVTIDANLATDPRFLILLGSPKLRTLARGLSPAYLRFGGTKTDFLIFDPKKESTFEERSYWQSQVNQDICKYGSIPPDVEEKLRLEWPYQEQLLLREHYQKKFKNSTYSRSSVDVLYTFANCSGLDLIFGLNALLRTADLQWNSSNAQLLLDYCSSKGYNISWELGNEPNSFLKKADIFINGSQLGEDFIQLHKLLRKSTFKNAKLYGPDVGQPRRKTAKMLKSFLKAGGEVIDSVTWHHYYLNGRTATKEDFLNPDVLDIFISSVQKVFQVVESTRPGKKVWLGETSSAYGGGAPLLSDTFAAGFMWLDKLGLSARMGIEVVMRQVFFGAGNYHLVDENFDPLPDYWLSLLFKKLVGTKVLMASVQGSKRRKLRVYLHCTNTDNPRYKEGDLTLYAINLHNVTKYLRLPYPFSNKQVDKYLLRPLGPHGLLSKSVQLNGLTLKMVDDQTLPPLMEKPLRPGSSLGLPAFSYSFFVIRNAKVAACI

[2] = molecular target: T2, Heparanase (Homo sapiens) (UniProt Q9Y251); assay: Binding affinity to recombinant heparanase catalytic stie (unknown origin) expressed in Escherichia coli BL21 (DE3) by NMR analysis
T2 sequence (whole entry): T1 sequence (Q9Y251 whole entry)

Heparanase [3] = molecular target: T1, Heparanase; assay: Inhibition of recombinant heparanase catalytic stie (unknown origin) expressed in Escherichia coli BL21 (DE3)

Structure (SMILES) | Kd (Heparanase [1]) | Activity [2] | IC50 (Heparanase [3])
CN(C)CCCNC(=O)c1cc(NC(=O)CN2CCCCC2)cc(Nc2ccnc3cc(Cl)ccc23)c1 | > 1000 µM | – | –
CN1C[C@H](CNC(=O)OCc2ccccc2)C[C@@H]2c3cccc4c3c(cn4C)C[C@H]21 [METERGOLINE] | > 1000 µM | Active | –
O=C(CN1CCCCC1)Nc1cc(CN2CCC(O)CC2)cc(Nc2ccnc3cc(Cl)ccc23)c1 | 1000 µM | – | –
CN(C)CCNCc1cc(NC(=O)CN2CCCCC2)cc(Nc2ccnc3cc(Cl)ccc23)c1 | 639 µM | – | –
C[C@@H]1O[C@@H](O[C@H]2[C@H](Oc3cc(O)c4c(c3)O[C@H](c3ccc(O)cc3)CC4=O)O[C@H](CO)[C@@H](O)[C@@H]2O)[C@H](O)[C@H](O)[C@H]1O [NARINGIN] | > 1000 µM | Active | –
COc1cc(N)c(Cl)cc1C(=O)NC1CCN(CCCOc2ccc(F)cc2)CC1OC (stereo unspecified) [CISAPRIDE] | > 1000 µM | Active | –
CCN(CC)Cc1cc(Nc2ccnc3cc(Cl)ccc23)ccc1N1CCOCC1 | 239 µM | – | –
Clc1ccc2c(Nc3ccc(-c4ccco4)c(CN4CCCC4)c3)ccnc2c1 | > 1000 µM | – | –
CCCCCCCCCCCCCCCC(=O)C1=C(OC)[C@@H](CO)OC1=O | – | – | > 100 µM
CCCCCCCCCCCCCCCC(=O)C1=C(O)[C@@H](CO)OC1=O | – | – | 17 µM
CCOc1ccc(Nc2ccnc3cc(Cl)ccc23)cc1CN1CCCC1 | 169 µM | – | –
CCN(CC)Cc1cc(Nc2ccnc3cc(Cl)ccc23)ccc1Br | > 1000 µM | – | –
O=C(O)c1ccccc1C(=O)c1ccc(Oc2ccccc2)c([N+](=O)[O-])c1 | – | – | 1 µM
CC(CCc1ccccc1)NCC(O)c1ccc(O)c(C(N)=O)c1 (stereo unspecified) [LABETALOL] | 1000 µM | Active | –
O=C(CN1CCCCC1)Nc1cc(Nc2ccnc3cc(Cl)ccc23)cc(C(=O)N2CCOCC2)c1 | > 1000 µM | – | –
COc1ccc(CCN2CCC(Nc3nc4ccccc4n3Cc3ccc(F)cc3)CC2)cc1 [ASTEMIZOLE] | > 1000 µM | Active | –
COc1ccc([C@@H]2CC(=O)c3c(O)cc(O[C@@H]4O[C@H](CO[C@@H]5O[C@@H](C)[C@H](O)[C@@H](O)[C@H]5O)[C@@H](O)[C@H](O)[C@H]4O)cc3O2)cc1O [HESPERIDIN] | > 1000 µM | Active | –
CCN(CC)Cc1cc(Nc2ccnc3cc(Cl)ccc23)ccc1O | 52.6 µM | Active | –
CCCCCCCCCCCCCCCc1cc(O[C@@H]2OC(C(=O)O)[C@H](O)[C@H](O)C2O)cc(O)c1C(=O)Oc1cc(C)c(C(=O)O)c(O)c1 (stereo partly specified) | – | – | 10 µM
